Experimental data as given in patent publication US9150505B2, “Prophylactic or therapeutic agent for diabetes or obesity” (AJINOMOTO CO., INC., priority 2010, dated 2015).

Experiments:
human CaSR = biological target: T1, human CaSR (Homo sapiens, UniProt P41180); assay: Assessment of CaSR agonistic activity (Ca2+ fluorescence, FLIPR, hCaSR-transfected 293E cells); assay type: cell-based; conditions: human CaSR-expressing 293E cells, 1.5 mM CaCl2 assay buffer, 3-minute change in fluorescence intensity
T1 construct: expressed in transfected cells; host or cells: 293E cells (EBNA1-expressing HEK293, ATCC No. CRL-10852), transient transfection of hCaSR/pcDNA3.1
T1 sequence (P41180 20-1078): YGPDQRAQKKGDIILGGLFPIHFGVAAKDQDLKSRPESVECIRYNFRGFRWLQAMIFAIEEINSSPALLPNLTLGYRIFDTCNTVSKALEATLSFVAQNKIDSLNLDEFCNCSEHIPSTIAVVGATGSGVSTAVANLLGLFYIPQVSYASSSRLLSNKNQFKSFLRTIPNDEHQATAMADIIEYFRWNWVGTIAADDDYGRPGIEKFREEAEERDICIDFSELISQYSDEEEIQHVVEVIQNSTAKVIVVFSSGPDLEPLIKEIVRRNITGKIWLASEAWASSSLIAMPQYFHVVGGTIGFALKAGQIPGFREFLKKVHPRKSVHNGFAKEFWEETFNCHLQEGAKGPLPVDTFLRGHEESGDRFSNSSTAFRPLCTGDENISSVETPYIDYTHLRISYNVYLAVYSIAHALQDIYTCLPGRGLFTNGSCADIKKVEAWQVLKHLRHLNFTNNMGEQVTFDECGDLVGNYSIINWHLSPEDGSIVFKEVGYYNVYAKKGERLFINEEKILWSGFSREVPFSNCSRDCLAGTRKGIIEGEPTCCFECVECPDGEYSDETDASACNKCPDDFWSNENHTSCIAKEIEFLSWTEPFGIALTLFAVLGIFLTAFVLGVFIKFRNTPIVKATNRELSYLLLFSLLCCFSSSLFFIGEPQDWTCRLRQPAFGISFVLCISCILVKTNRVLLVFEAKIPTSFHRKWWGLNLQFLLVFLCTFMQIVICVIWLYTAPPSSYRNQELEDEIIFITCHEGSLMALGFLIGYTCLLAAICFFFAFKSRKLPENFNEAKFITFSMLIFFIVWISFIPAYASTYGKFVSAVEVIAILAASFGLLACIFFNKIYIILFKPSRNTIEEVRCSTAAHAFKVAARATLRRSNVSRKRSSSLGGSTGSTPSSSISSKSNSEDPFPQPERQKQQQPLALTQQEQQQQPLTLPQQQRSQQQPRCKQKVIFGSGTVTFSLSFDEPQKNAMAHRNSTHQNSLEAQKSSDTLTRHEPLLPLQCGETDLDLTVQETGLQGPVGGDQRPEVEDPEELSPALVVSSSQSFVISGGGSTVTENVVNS
Method: CaSR gene was prepared according to the method described in Example 1 of WO07/55393. The resulting recombinant plasmid was used to generate human CaSR-expressing plasmid hCaSR/pcDNA3.1.
293E cells (EBNA1-expressing IIEK293 cells, ATCC No. CRL-10852) were cultured in DMEM ([…] Glucose-containing Dulbecco's modified Eagle medium, Nacalai Tesque) containing 10% bovine fetal serum in the presence of 250 μg/ml of G418. The cells were seeded on a 10 cm-diameter petri dish at 1.8×10^6 cells/15 ml, and left to stand in a CO2 incubator (5% CO2, 37° C.) for 24 hours. Thereafter, human CaSR expression plasmid hCaSR/pcDNA3.1 was transfected with transfection reagent Mirus Trans IT 293 (Takara Bio). Following static culture in a CO2 incubator for 24 hours, the cells were harvested with 10% bovine fetal serum-containing DMEM and seeded on a poly-D-lysine coat 384 well plate (Falcon) at 15,000 cells/well. Following static culture in a CO2 incubator for 24 hours, the medium was removed and the resultant was added with 50 μl/well of Ca^2+ fluorescent indicator Calcium 4 Assay Kit (Molecular Devices) dissolved in an assay buffer (146 mM NaCl, 5 mM KCl, 1 mM MgSO4, 1 mg/ml Glucose, 20 mM HEPES (PH 7.2), 1.5 mM CaCl2), and left to stand at 37° C. for an hour and then at room temperature for 30 minutes to allow intake of the indicator. The above-mentioned 384-well plate was transferred to FLIPR (Molecular Devices) and added with 12.5 μl/well of a compound dissolved in a 0.1% BSA-containing assay buffer to measure 3-minute change in the fluorescence intensity.
The difference between maximum and minimum fluorescence intensities before and after compound addition (RFU (Max−Min)) was determined by FLIPR automatic calculation. An activity rate was calculated where RFU (Max−Min) upon addition of a compound at a maximum concentration was defined 100% and RFU (Max−Min) upon addition of DMSO as a substitute for the compound at the same concentration was defined 0%. The rate was subjected to curve fitting using spreadsheet software Xfit to determine EC50 value, i.e., a compound concentration upon 50% activity rate.

NCI-H716 cells = assay: Promotion of CCK secretion in NCI-H716 cells; assay type: cell-based, human
Method: Human appendix-derived cell line NCI-H716 (ATCC No CCL-251) was cultured in a 10% FBS-containing DMEM/HamF-12 medium at 37° C. in the presence of 5% CO2. NCI-H716 cells were seeded in a poly-D-lysine-coated 24-well plate at 600,000 cells/well and cultured for two days. Prior to sample addition, wells were washed with Hepes buffer (20 mM Hepes, 146 mM NaCl, 5 mM KCl, 1.5 mM CaCl2, 1 mM MgSO4, 5.5 mM D-glucose, 0.02% BSA, pH 7.4). 300 μl of a sample solution dissolved in the same buffer was added and incubated at 37° C. for 30 minutes. Compound 1 in Example 6 (2 mM) and Compound 2 in Example 48 (1 mM) were used as the samples. In addition, a Hepes buffer was used as a control. After collecting the supernatant, the cells were precipitated by centrifugation (5,000×g, 1 min.) to collect the supernatant thereof, which was lyophilized in Speed Vac Concentrator (SAVANT) and dissolved by addition of 60 μl of water. CCK level in the solution was determined using Enzyme immuno assay kit (EK-069-04; PHENOIX PHARMACEUTICALS).

- EC50 (human CaSR): 3 nM
Compound: N[C@@H](CNC(=O)Nc1cc(Cl)cc(S(=O)(=O)O)c1O)C(=O)O [Example 6, (2S)-2-amino-3-{[(5-chloro-2-hydroxy-3-sulfophenyl)carbamoyl]amino}propanoic acid]
- Relative secretion volumes (CCK) (NCI-H716 cells; 2 mM, 30 minutes at 37° C., buffer assumed to be 1.0): 4.89
- effect of promoting CCK secretion (NCI-H716 cells; result in words): confirmed to have an effect of promoting CCK secretion
